From US20250339569A1, “CARBONIC ANHYDRASE IX LIGANDS” (priority 2021, published 2025) come the findings set out here.

Data set [1] concerns the target T1, CAIX-expressing human HT-29 colorectal cancer cells (Homo sapiens, UniProt Q16790).
T1 construct: CAIX-expressing human HT-29 colorectal cancer cells; host or cells: HT-29 human colorectal cancer cells
Description: FACS binding assay (IC50 determination, competition with tracer 3BP-2776 or 3BP-4149). As to conditions: FACS binding assay, HT-29 cells, 4° C., 1 hour, read-out: pIC50 category (activity) (converted). The gist of the method:
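HT-29 cells in FACS buffer (PBS, 1% FCS) at 500.000 cells/ml were exposed to compounds competing with a labelled tracer, with biotinylated compounds detected by 1 μg/mL APC-streptavidin for 30 min on ice. APC/Cy5 median fluorescence was read by flow cytometry and IC50 derived by 4PL fit.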
For orientation: In flow cytometry, cells or beads pass a laser one at a time.

The next data set deals with T2, CAIV (hCAIV-bio) (Homo sapiens, UniProt P22748).
T2 construct: purchased SinoBliological (Sino Biological) 10472-1H081H
T2 sequence (P22748 19-284): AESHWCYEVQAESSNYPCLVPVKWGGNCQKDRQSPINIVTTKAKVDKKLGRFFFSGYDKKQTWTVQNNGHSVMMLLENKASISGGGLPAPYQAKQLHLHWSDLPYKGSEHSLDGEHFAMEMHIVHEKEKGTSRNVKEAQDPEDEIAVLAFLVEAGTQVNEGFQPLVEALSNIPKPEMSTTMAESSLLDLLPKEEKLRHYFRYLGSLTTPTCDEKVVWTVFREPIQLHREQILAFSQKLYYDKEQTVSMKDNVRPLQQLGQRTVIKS
Description: SPR selectivity assay with biotinylated CAIV. The format is binding. The conditions noted are these: SPR, biotinylated CAIV; read-out: pKD category (affinity) CAIV (converted). Here is the method:
(§1) In order to test selectivity of CAIX-binding peptides toward CAIV (SinoBliological, Cat #10472-1H081H), CAXII (SinoBliological, Cat #10617-H08H or CAXIV (SinoBliological, Cat #10458-H08H), SPR assays were performed analog to the assay described above but with a different target capture procedure. For immobilization, the carbonic anhydrases were biotinylated and capture on the SPR chip using the Biotin CAPture Kit (cytiva) according to the manufacturer instructions using HBSTE, 0.1% as Running Buffer.
(§2) Table 13 describes the protocol steps for biotinylated target capturing and assessment of the binding kinetics.

The target in data set [2] is T3, human carbonic anhydrase IX (hCAIX-Fc) (Homo sapiens, UniProt Q16790).
T3 construct: purchased SinoBliological (Sino Biological) 10107-H02H
The experiment in a line: Surface plasmon resonance assay with hCAIX-Fc. The format is binding. As to conditions: 25° C.; for t1/2 category (activity): SPR dissociation half-life, hCAIX-Fc; for Kd: SPR, hCAIX-Fc captured, read-out: pKD category (activity) (converted). Background: SPR reads the build-up and loss of mass on a sensor chip optically.

In another data set the target is T4, CAXII (hCAXII-bio) (Homo sapiens, UniProt O43570).
T4 construct: purchased SinoBliological (Sino Biological) 10617-H08H
T4 sequence (O43570 25-354): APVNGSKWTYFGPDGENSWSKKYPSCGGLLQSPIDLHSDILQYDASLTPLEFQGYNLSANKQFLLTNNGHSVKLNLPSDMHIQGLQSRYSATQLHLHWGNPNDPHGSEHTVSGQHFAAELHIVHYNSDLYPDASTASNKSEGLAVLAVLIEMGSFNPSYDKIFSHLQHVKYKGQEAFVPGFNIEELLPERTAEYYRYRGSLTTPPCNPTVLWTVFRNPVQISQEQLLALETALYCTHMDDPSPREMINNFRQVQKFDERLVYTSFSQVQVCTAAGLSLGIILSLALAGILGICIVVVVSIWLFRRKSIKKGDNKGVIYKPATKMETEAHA
Description: SPR selectivity assay with biotinylated CAXII. The format is binding. The conditions noted are these: SPR, biotinylated CAXII; read-out: pKD category (affinity) CAXII (converted). The procedure:
as §1, §2

A short description of data set [3]: Plasma stability assay, mouse plasma. The conditions noted are these: mouse plasma, 37°C, 24 h.
In another data set the target is T5, CAXIV (hCAXIV-bio) (Homo sapiens, UniProt Q9ULX7).
T5 construct: purchased SinoBliological (Sino Biological) 10458-H08H
T5 sequence (Q9ULX7 16-337): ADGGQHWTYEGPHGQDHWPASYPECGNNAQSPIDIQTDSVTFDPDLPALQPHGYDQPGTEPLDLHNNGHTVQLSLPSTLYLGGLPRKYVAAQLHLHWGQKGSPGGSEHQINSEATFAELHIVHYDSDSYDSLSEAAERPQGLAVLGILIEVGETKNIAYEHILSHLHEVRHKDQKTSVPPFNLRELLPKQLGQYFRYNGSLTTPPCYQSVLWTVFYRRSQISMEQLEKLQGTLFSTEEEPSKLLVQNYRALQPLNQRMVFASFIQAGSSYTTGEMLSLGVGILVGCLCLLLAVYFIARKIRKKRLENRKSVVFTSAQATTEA
The experiment in a line: SPR selectivity assay with biotinylated CAXIV. Format: binding. The conditions noted are these: SPR, biotinylated CAXIV; read-out: pKD category (affinity) CAXIV (converted). The procedure: as §1, §2

The conditions of data set [4]: mouse, plasma, 24 h.
Where [5] appears, read: competition with tracer 3BP-2776 (10 nM, biotin-labeled).
The mark [6] stands for this setting: competition with tracer 3BP-4149 (3 nM, Cy5-labeled).

Read-outs that look alike come from different tables or passages of the source. Starred links: 1 amine or outer side, 2 acyl side, 3 side chain; linkers in the order of their positions; H or OH if unused. Positions of bridges follow the written chain, without caps; N, C: chain ends. Non-standard residues stand in square brackets, D forms with d. Residues, ends and D or L forms follow the SMILES beside them. *: point of attachment. Phe(3-NHCO(CH2)3SO2NH2) = N[C@@H](Cc1cccc(NC(=O)CCCS(N)(=O)=O)c1)C(=O)O; X4 = CS(=O)(=O)CC(=O)Nc1cccc(C[C@H](N[*:1])C(=O)[*:2])c1; DOTA = O=C(O)CN1CCN(CC(=O)O)CCN(CC(=O)*)CCN(CC(=O)O)CC1; X5 = O=C(O)CCCC(=O)Nc1cccc(C[C@H](N[*:1])C(=O)[*:2])c1; X6 = O=C(O)CCC(=O)Nc1cccc(C[C@H](N[*:1])C(=O)[*:2])c1; mXylylene = c1cc(C[*:1])cc(C[*:2])c1; X2 = O=C(CN1CCC(N[*:1])CC1)[*:2]; Dap = NC[C@H](N)C(=O)O Bounds are passed on as bounds.

`CC(C)C[C@@H]1NC(=O)[C@H](Cc2c[nH]c3ccccc23)NC(=O)[C@H](CC(=O)O)NC(=O)[C@H]2CCCN2C(=O)[C@H](CCC(=O)O)NC(=O)[C@@H]2CSCc3cccc(c3)CSC[C@@H](C(N)=O)NC(=O)[C@H](CNC(=O)C[C@H](NC(=O)[C@@H](NC(=O)CN3CCC(NC(=O)CN4CCN(CC(=O)O)CCN(CC(=O)O)CCN(CC(=O)O)CC4)CC3)C(C)C)C(=O)N2)NC(=O)[C@H](Cc2c[nH]c3ccccc23)NC(=O)[C@H]([C@@H](C)O)NC1=O` [3BP-4174, DOTA-APAc-Val-{Asp-[Cys(3MeBn)-Glu-pro-Asp-Trp-Leu-Thr-Trp-Dap}-Cys]-NH2] ({DOTA}-[X2]VDCE[dP]DWLTW[Dap]C-NH2; lactam 3-12; linker 4-13 via mXylylene): the IC50 in data set [1] (setting [5]) is under 0.01 µM. For the same molecule, the Kd on CAIV (hCAIV-bio) is over 1 µM; in data set [2], under 0.01 µM; at CAXII (hCAXII-bio) it was over 1 µM; at CAXIV (hCAXIV-bio), over 1 µM. Further, the “t1/2 category (activity)” value in data set [2] was “A (t1/2>15.0 minutes)”. Further, in data set [3], the “% intact compound remaining (incubation time)” value (“% intact compound remaining” below) was over 95%.

In the case of `CC(C)C[C@@H]1NC(=O)[C@H](Cc2cccc(NC(=O)CCC(=O)O)c2)NC(=O)[C@H](CC(=O)O)NC(=O)[C@H]2CCCN2C(=O)[C@H](CCC(=O)O)NC(=O)[C@@H](NC(=O)[C@H](Cc2ccc(O)cc2)NC(=O)[C@@H](NC(=O)CN2CCC(NC(=O)CN3CCN(CC(=O)O)CCN(CC(=O)O)CCN(CC(=O)O)CC3)CC2)C(C)C)CSCc2cccc(c2)CSC[C@@H](C(N)=O)NC(=O)[C@H](CO)NC(=O)[C@H](Cc2c[nH]c3ccccc23)NC(=O)[C@H]([C@@H](C)O)NC1=O` [3BP-4237, DOTA-APAc-Val-Tyr-[Cys(3MeBn)-Glu-pro-Asp-Af3(HO-Succinyl)-Leu-Thr-Trp-Ser-Cys]-NH2] ({DOTA}-[X2]VYCE[dP]D[X6]LTWSC-NH2; linker 4-13 via mXylylene), the IC50 in data set [1] (setting [5]) is under 0.01 µM. Further, in data set [2], the “t1/2 category (activity)” value is “A (t1/2>15.0 minutes)” and the Kd is under 0.01 µM. Moreover, the “% intact compound remaining” value in data set [4] is over 95%.

In the case of `CC(C)C[C@@H]1NC(=O)[C@H](Cc2cccc(NC(=O)CS(C)(=O)=O)c2)NC(=O)[C@H](CC(=O)O)NC(=O)[C@H]2CCCN2C(=O)[C@H](CCC(=O)O)NC(=O)[C@@H](NC(=O)[C@H](Cc2ccc(O)cc2)NC(=O)[C@@H](NC(=O)CN2CCC(NC(=O)CN3CCN(CC(=O)O)CCN(CC(=O)O)CCN(CC(=O)O)CC3)CC2)C(C)C)CSCc2cccc(c2)CSC[C@@H](C(N)=O)NC(=O)[C@H](CO)NC(=O)[C@H](Cc2c[nH]c3ccccc23)NC(=O)[C@H]([C@@H](C)O)NC1=O` [3BP-4242] ({DOTA}-[X2]VYCE[dP]D[X4]LTWSC-NH2; linker 4-13 via mXylylene), in data set [1] (setting [5]), the IC50 is under 0.01 µM. Further, in data set [2], the “t1/2 category (activity)” value is “B (t1/2 between 5.1 and 15.0 minutes)”; the Kd is under 0.01 µM. In addition, the “% intact compound remaining” value in data set [4] is reported as over 95%.

In the case of `CC(C)C[C@@H]1NC(=O)[C@H](Cc2cccc(NC(=O)CCCC(=O)O)c2)NC(=O)[C@H](CC(=O)O)NC(=O)[C@H]2CCCN2C(=O)[C@H](CCC(=O)O)NC(=O)[C@@H](NC(=O)[C@H](Cc2ccc(O)cc2)NC(=O)[C@@H](NC(=O)CN2CCC(NC(=O)CN3CCN(CC(=O)O)CCN(CC(=O)O)CCN(CC(=O)O)CC3)CC2)C(C)C)CSCc2cccc(c2)CSC[C@@H](C(N)=O)NC(=O)[C@H](CO)NC(=O)[C@H](Cc2c[nH]c3ccccc23)NC(=O)[C@H]([C@@H](C)O)NC1=O` [3BP-4367] ({DOTA}-[X2]VYCE[dP]D[X5]LTWSC-NH2; linker 4-13 via mXylylene), the IC50 in data set [1] (setting [6]) was under 0.01 µM. For the same molecule, in data set [2], the “t1/2 category (activity)” value is “A (t1/2>15.0 minutes)” and the Kd was under 0.01 µM. Moreover, the “% intact compound remaining” value in data set [4] is on record as over 95%.

Regarding `CC(C)C[C@@H]1NC(=O)[C@H](Cc2cccc(NC(=O)CCCS(N)(=O)=O)c2)NC(=O)[C@H](CC(=O)O)NC(=O)[C@H]2CCCN2C(=O)[C@H](CCC(=O)O)NC(=O)[C@@H](NC(=O)[C@H](Cc2ccc(O)cc2)NC(=O)[C@@H](NC(=O)CN2CCC(NC(=O)CN3CCN(CC(=O)O)CCN(CC(=O)O)CCN(CC(=O)O)CC3)CC2)C(C)C)CSCc2cccc(c2)CSC[C@@H](C(N)=O)NC(=O)[C@H](CO)NC(=O)[C@H](Cc2c[nH]c3ccccc23)NC(=O)[C@H]([C@@H](C)O)NC1=O` [3BP-4369] ({DOTA}-[X2]VYCE[dP]D[Phe(3-NHCO(CH2)3SO2NH2)]LTWSC-NH2; linker 4-13 via mXylylene), the IC50 in data set [1] (setting [6]) was under 0.01 µM. Besides, in data set [2], the “t1/2 category (activity)” value was “A (t1/2>15.0 minutes)” and the Kd is under 0.01 µM. The “% intact compound remaining” value in data set [4] was over 95%.
